The values below come from patent US9096550B2, “Bryostatin analogues and methods of making and using thereof” (UNIVERSITY OF UTAH RESEARCH FOUNDATION, priority 2008, dated 2015).

Like-named read-outs stand apart in the source and are kept apart here.

Assay type in all cases: cell-based, human
The test system of one assay is cFos. Put plainly: Induction of cFos in LNCaP cells (western blot). Conditions: LNCaP cells treated 2, 5 or 8 hrs. On the procedure: FIGS. 14A-C show the induction of cFos and phosphorylation of PKC at Y311 in LNCaP cells. […] The proteins from the lysates were separated by 10% SDS-PAGE, electroblotted to nitrocellulose membranes and probed with anti-cFos primary and anti-rabbit secondary antibodies, followed by ECL visualization. Data are representative of four independent experiments. […] The cFos signal was normalized to the β-actin signal to correct for loading and the response induced by 100 nM PMA at 2 hrs was taken as 100%. Data represent the means+SEM of four independent experiments. […] Data represent the means+SEM of three independent experiments.
LNCaP cells treated for 48 hours with the different drugs or with DMSO as control were washed and re-suspended in phosphate buffered saline. Yo-Pro-1 (Invitrogen, Carlsbad, Calif.) was added to a final concentration of 1 μM and the cells were incubated for 20 min at 4° C. in the dark. 7-Aminoactinomycin D (7-AAD) (Invitrogen, Carlsbad, Calif.) was then added at a 5 μg/mL final concentration 10 minutes before analysis by flow cytometry using the FACSCalibur system (Becton Dickinson, Mountain View, Calif.). Data were analyzed with FlowJo 7 (Tree Star Inc., Ashland, Oreg.). The Yo-Pro-1 positive cells were considered apoptotic and were expressed as % of total cells. […]

The test system of assay [1] is LNCaP cells. Put plainly: Proliferation of LNCaP cells (Incucyte confluency). Conditions: for effect on LNCaP cell growth: compound alone, confluency at 80 hrs. On the procedure: (§1) FIGS. 12A-D show the effect of different compounds on the proliferation and apoptosis of LNCaP cells. […] Time-elapsed images were taken with an Incucyte imaging system every hour for 4 days. The proliferation of LNCaP cells is presented as increase in confluency (read by the instrument) at 80 hrs. Data represent the means+SEM of three independent experiments. […] Apoptosis was measured 2 days after treatment by flow cytometry using 7-AAD and Yo-Pro-1 as described in Materials and Methods. Data represent the means+SEM of three independent experiments.
(§2) FIGS. 13A and 13B show the proliferation and morphology of LNCaP cells detected by Incucyte. LNCaP cells were treated with DMSO as control, 300 nM PMA, 1000 nM bryostatin 1 or the bryologue MERLE 21, or with 300 nM PMA in combination with 1000 nM bryostatin 1 or the bryologue MERLE 21. Time-elapsed images were taken by the Incucyte imaging system every hour. […] The arrow indicates the time of treatment. Data are representative of three independent experiments.
The extent of confluency of LNCaP cells (from ATCC, Manassas, Va.) and the morphological changes after treatment were followed in real time using Incucyte (Essen Instruments, Ann Arbor, Mich.). Images of LNCaP cells plated into 24 well plates were taken every 1 hour by the instrument before and after treatment for a total of 4 days. The confluency of the cells was calculated by the instrument's program. The proliferation of LNCaP cells was expressed as the difference in cell confluency before and after treatment.

The subject of assay [2] is LNCaP cells. Nature of the assay: Apoptosis of LNCaP cells (Yo-Pro-1/7-AAD flow cytometry). As to conditions: 48 hr; for induction of apoptosis in LNCaP cells: compound alone. Here is the method:
as §1
LNCaP cells treated for 48 hours with the different drugs or with DMSO as control were washed and re-suspended in phosphate buffered saline. Yo-Pro-1 (Invitrogen, Carlsbad, Calif.) was added to a final concentration of 1 μM and the cells were incubated for 20 min at 4° C. in the dark. 7-Aminoactinomycin D (7-AAD) (Invitrogen, Carlsbad, Calif.) was then added at a 5 μg/mL final concentration 10 minutes before analysis by flow cytometry using the FACSCalibur system (Becton Dickinson, Mountain View, Calif.). Data were analyzed with FlowJo 7 (Tree Star Inc., Ashland, Oreg.). The Yo-Pro-1 positive cells were considered apoptotic and were expressed as % of total cells. Western blot analysis of treated LNCaP cell lysates was performed as described previously using rabbit anti-cFos, rabbit anti-PKC delta, rabbit anti-phospho-tyrosine 311 of PKC delta or rabbit anti-β-actin antibodies.
On the technique in general: A flow cytometer gives signals particle by particle.

Assay [3] concerns LNCaP cells. Nature of the assay: Early morphology change (cell flattening) of LNCaP cells by Incucyte imaging. On the procedure: as §2
The extent of confluency of LNCaP cells (from ATCC, Manassas, Va.) and the morphological changes after treatment were followed in real time using Incucyte (Essen Instruments, Ann Arbor, Mich.). […] The confluency of the cells was calculated by the instrument's program. The proliferation of LNCaP cells was expressed as the difference in cell confluency before and after treatment.
The above measurements were determined at fixed times after compound addition, 80 hr for proliferation and 48 hr for apoptosis. Cell growth was monitored continuously using an Incucyte live cell imaging system. […] At early times (0-6 hrs after treatment), the imaging also detected a transient response, reflecting a change in cell morphology induced by the compounds, superimposed on the slower change in the signal reflecting proliferation. […]

Turning to `CCCCCCCCCCCCCC(=O)O[C@@H]1[C@@H](C)[C@@]2(O)[C@@H](C=C(CO)C[C@]3(O)C(=O)C(C)=C[C@@H]23)[C@@H]2C(C)(C)[C@]12OC(C)=O` [PMA], in the assay with cFos, the “time course of cFos induction” value is listed as “persisted for 5 hrs, with weak induction still evident at 8 hrs”. In the assay on LNCaP cells [1], the “effect on LNCaP cell growth” value is “marked inhibition of cell proliferation”. Moreover, the “induction of apoptosis in LNCaP cells” value in the assay with LNCaP cells [2] is recorded as “induced apoptosis”. Also, the “persistence of cell flattening (early morphological response)” value in the assay on LNCaP cells [3] is listed as “still evident at 6 hrs but reversing by 9 hrs”.

In the case of `CCC/C=C/C=C/C(=O)O[C@H]1/C(=C/C(=O)OC)C[C@H]2C[C@H]([C@@H](C)O)OC(=O)C[C@H](O)C[C@@H]3C[C@H](OC(C)=O)C(C)(C)[C@](O)(C[C@@H]4C/C(=C/C(=O)OC)C[C@H](/C=C/C(C)(C)[C@]1(O)O2)O4)O3` [bryostatin 1], the “time course of cFos induction” value in the assay on cFos is recorded as “largely lost by 5 hrs”. In the assay with LNCaP cells [1] (300 nM PMA combined with 1000 nM compound, 80 hrs), the “block of the PMA inhibition of LNCaP cell growth” value is “blocked the inhibition of LNCaP cell growth by PMA”. The “effect on LNCaP cell growth” value with LNCaP cells [1] is “little effect”. Further, the “block of induction of apoptosis by PMA in LNCaP cells” value in the assay with LNCaP cells [2] (300 nM PMA in combination with 1000 nM compound) was “largely blocked the induction of apoptosis by PMA”. Further, the “induction of apoptosis in LNCaP cells” value with LNCaP cells [2] is recorded as “little effect”. Besides, the “persistence of cell flattening (early morphological response)” value with LNCaP cells [3] (LNCaP cells, 0-9 hrs after treatment) is on record as “had reversed by 6 hrs after treatment”.
